Assay results published in patent US8541363B2, “Pyruvamide compounds as inhibitors of dust mite group 1 peptidase allergen and their use” (St George's Hosptial Medical School, priority 2010, dated 2013).

Each compound was assayed against Der p 1 (Dermatophagoides pteronyssinus (European house dust mite), UniProt P08176) (assay: Der p 1 enzyme activity assay (FRET fluorogenic substrate)). Conditions: Der p 1 IC50.
Format: biochemical

Sequence of Der p 1 (P08176 99-320): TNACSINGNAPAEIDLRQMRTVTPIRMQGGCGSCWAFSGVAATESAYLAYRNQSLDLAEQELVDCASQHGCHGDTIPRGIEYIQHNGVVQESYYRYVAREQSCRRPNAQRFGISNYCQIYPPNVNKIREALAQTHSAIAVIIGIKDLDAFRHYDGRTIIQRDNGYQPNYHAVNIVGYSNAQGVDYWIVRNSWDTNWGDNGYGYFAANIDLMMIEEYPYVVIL

Row | SMILES | IC50
1 | CNS(=O)(=O)c1ccc(CNC(=O)C(=O)[C@@H](NC(=O)[C@H](C)NC(=O)[C@@H](N2Cc3ccccc3C2=O)C(C)(C)C)C(C)C)cc1 [PVA-208] | < 0.02 µM

Same assay, conditions: threshold stated in text; read-out: Der p 1 IC50

Row | SMILES | IC50
2 | CC(C)[C@H](NC(=O)[C@H](C)NC(=O)[C@@H](NC(=O)c1ccccc1)C(C)(C)C)C(=O)C(=O)NCC1CCN(C)CC1 [PVA-163] | < 0.2 µM
3 | CC(C)[C@H](NC(=O)[C@H](C)NC(=O)[C@@H](NC(=O)c1ccccc1)C(C)(C)C)C(=O)C(=O)NCc1ccc(CN(C)C)cc1 [PVA-164] | < 0.02 µM
4 | CC(C)[C@H](NC(=O)[C@H](C)NC(=O)[C@@H](NC(=O)c1ccccc1)C(C)(C)C)C(=O)C(=O)NCc1ccc(CN2CCCCC2)cc1 [PVA-165] | < 0.2 µM
5 | CC(C)[C@H](NC(=O)[C@H](C)NC(=O)[C@@H](NC(=O)c1ccccc1)C(C)(C)C)C(=O)C(=O)NCc1nccn1C [PVA-166] | < 0.2 µM
6 | CC(C)[C@H](NC(=O)[C@H](C)NC(=O)[C@@H](NC(=O)c1ccccc1)C(C)(C)C)C(=O)C(=O)NCc1ccnn1C [PVA-167] | < 0.2 µM
7 | Cc1cc(CNC(=O)C(=O)[C@@H](NC(=O)[C@H](C)NC(=O)[C@@H](NC(=O)c2ccccc2)C(C)(C)C)C(C)C)n(C)n1 [PVA-168] | < 0.2 µM
8 | CC(C)[C@H](NC(=O)[C@H](C)NC(=O)[C@H](Cc1ccccc1)NC(=O)c1ccncc1)C(=O)C(=O)NCc1cccc(C(N)=O)c1 [PVA-169] | < 0.02 µM
9 | CC(C)[C@H](NC(=O)[C@H](C)NC(=O)[C@H](Cc1ccccc1)NC(=O)c1ccncc1)C(=O)C(=O)NCC1CCN(C)CC1 [PVA-170] | < 0.2 µM
10 | CC(C)[C@H](NC(=O)[C@H](C)NC(=O)[C@H](Cc1ccccc1)NC(=O)c1ccncc1)C(=O)C(=O)NCc1cccc(S(N)(=O)=O)c1 [PVA-171] | < 0.2 µM
11 | CC(C)[C@H](NC(=O)[C@H](C)NC(=O)[C@@H](NC(=O)C1CCN(C(C)C)CC1)C(C)(C)C)C(=O)C(=O)NCc1ccccc1 [PVA-172] | < 0.2 µM
12 | CC(C)[C@H](NC(=O)[C@H](C)NC(=O)[C@@H](NC(=O)c1cccc(N2CCN(C)CC2)c1)C(C)(C)C)C(=O)C(=O)NCc1ccccc1 [PVA-173] | < 0.2 µM
13 | CC(C)[C@H](NC(=O)[C@H](C)NC(=O)[C@H](Cc1ccccc1)NC(=O)c1ccncc1)C(=O)C(=O)NC1CCC1 [PVA-174] | < 0.2 µM
14 | CC(C)[C@H](NC(=O)[C@H](C)NC(=O)[C@H](Cc1ccccc1)NC(=O)c1ccncc1)C(=O)C(=O)NC1CCCC1 [PVA-175] | < 0.2 µM
15 | CC(C)[C@H](NC(=O)[C@H](C)NC(=O)[C@@H](NC(=O)c1ccc(N2CCN(C)CC2)cc1)C(C)(C)C)C(=O)C(=O)NCc1ccccc1 [PVA-176] | < 0.2 µM
16 | CC(C)[C@H](NC(=O)[C@H](C)NC(=O)[C@@H](N1Cc2ccccc2C1=O)C(C)(C)C)C(=O)C(=O)NC1CC1 [PVA-177] | < 0.02 µM
17 | CC(C)[C@H](NC(=O)[C@H](C)NC(=O)[C@@H](NC(=O)c1ccccc1)C(C)(C)C)C(=O)C(=O)NCc1ccc(F)cc1 [PVA-178] | < 0.02 µM
18 | CC(C)[C@H](NC(=O)[C@H](C)NC(=O)[C@@H](NC(=O)c1ccccc1)C(C)(C)C)C(=O)C(=O)NCc1ccc(Cl)cc1 [PVA-179] | < 0.2 µM
19 | CC(C)[C@H](NC(=O)[C@H](C)NC(=O)[C@@H](NC(=O)c1ccccc1)C(C)(C)C)C(=O)C(=O)NCc1ccc(C(C)(C)C)cc1 [PVA-180] | < 0.2 µM
20 | CC(C)[C@H](NC(=O)[C@H](C)NC(=O)[C@@H](NC(=O)c1ccccc1)C(C)(C)C)C(=O)C(=O)NCc1ccc(C(F)(F)F)cc1 [PVA-181] | < 0.2 µM
21 | CC(C)[C@H](NC(=O)[C@H](C)NC(=O)[C@@H](NC(=O)c1ccccc1C(F)(F)F)C(C)(C)C)C(=O)C(=O)NCc1ccccc1 [PVA-182] | < 0.02 µM
22 | CC(C)[C@H](NC(=O)[C@H](C)NC(=O)[C@@H](NC(=O)c1cccc(Cl)c1)C(C)(C)C)C(=O)C(=O)NCc1ccccc1 [PVA-183] | < 0.02 µM
23 | CC(C)[C@H](NC(=O)[C@H](C)NC(=O)[C@@H](NC(=O)c1ccc(Cl)cc1)C(C)(C)C)C(=O)C(=O)NCc1ccccc1 [PVA-184] | < 0.2 µM
24 | CC(C)[C@H](NC(=O)[C@H](C)NC(=O)[C@@H](NC(=O)c1ccnc2ccccc12)C(C)(C)C)C(=O)C(=O)NCc1ccc(S(N)(=O)=O)cc1 [PVA-185] | < 0.02 µM
25 | CC(C)[C@H](NC(=O)[C@H](C)NC(=O)[C@@H](NC(=O)c1ccnc2ccccc12)C(C)(C)C)C(=O)C(=O)NCC(=O)N1CCc2ccccc2C1 [PVA-186] | < 0.02 µM
26 | CC(C)[C@H](NC(=O)[C@H](C)NC(=O)[C@@H](NC(=O)c1ccnc2ccccc12)C(C)(C)C)C(=O)C(=O)NCC(=O)N1CCN(C(C)C)CC1 [PVA-187] | < 0.02 µM
27 | CC(C)[C@H](NC(=O)[C@H](C)NC(=O)[C@@H](NC(=O)c1ccnc2ccccc12)C(C)(C)C)C(=O)C(=O)NCc1ccc(C(N)=O)cc1 [PVA-188] | < 0.02 µM
28 | CC(C)[C@H](NC(=O)[C@H](C)NC(=O)[C@@H](NC(=O)c1ccccc1)C(C)(C)C)C(=O)C(=O)NCc1ccc(OC(F)(F)F)cc1 [PVA-189] | < 0.2 µM

Row | SMILES | IC50
29 | CC(C)[C@H](NC(=O)[C@H](C)NC(=O)[C@@H](NC(=O)c1ccccc1)C(C)(C)C)C(=O)C(=O)NCc1cccc(N2CCN(C)CC2)c1 [PVA-190] | < 0.2 µM
30 | CC(C)[C@H](NC(=O)[C@H](C)NC(=O)[C@@H](NC(=O)c1ccccc1)C(C)(C)C)C(=O)C(=O)NCc1cccc(Cl)c1 [PVA-191] | < 0.2 µM
31 | CC(C)[C@H](NC(=O)[C@H](C)NC(=O)[C@@H](NC(=O)c1ccccc1)C(C)(C)C)C(=O)C(=O)NCc1ccc(C#N)cc1 [PVA-192] | < 0.02 µM
32 | CC(C)[C@H](NC(=O)[C@H](C)NC(=O)[C@@H](NC(=O)c1ccccc1)C(C)(C)C)C(=O)C(=O)NCc1ccccc1Cl [PVA-193] | < 0.2 µM
33 | CC(C)[C@H](NC(=O)[C@H](C)NC(=O)[C@@H](NC(=O)c1ccccc1)C(C)(C)C)C(=O)C(=O)NCc1ccc(NC(N)=O)cc1 [PVA-194] | < 0.02 µM
34 | CC(C)[C@H](NC(=O)[C@H](C)NC(=O)[C@@H](NC(=O)c1ccccc1)C(C)(C)C)C(=O)C(=O)NCc1ccc(N2CCN(C)CC2)nc1 [PVA-195] | < 0.02 µM
35 | CNC(=O)c1ccc(CNC(=O)C(=O)[C@@H](NC(=O)[C@H](C)NC(=O)[C@@H](NC(=O)c2ccccc2)C(C)(C)C)C(C)C)cc1 [PVA-196] | < 0.02 µM
36 | CNS(=O)(=O)c1ccc(CNC(=O)C(=O)[C@@H](NC(=O)[C@H](C)NC(=O)[C@@H](NC(=O)c2ccccc2)C(C)(C)C)C(C)C)cc1 [PVA-197] | < 0.02 µM
37 | CC(C)[C@H](NC(=O)[C@H](C)NC(=O)[C@H](Cc1ccc(N2CCN(C)CC2)cc1)NC(=O)c1ccccc1)C(=O)C(=O)NCc1ccccc1 [PVA-198] | < 0.2 µM
38 | COC(=O)c1cccc(CNC(=O)C(=O)[C@@H](NC(=O)[C@H](C)NC(=O)[C@@H](NC(=O)c2ccccc2)C(C)(C)C)C(C)C)c1 [PVA-199] | < 0.02 µM
39 | CC(C)[C@H](NC(=O)[C@H](C)NC(=O)[C@@H](NC(=O)c1ccccc1)C(C)(C)C)C(=O)C(=O)NCc1cccc(C(=O)OC(C)(C)C)c1 [PVA-200] | < 0.2 µM
40 | CC(C)[C@H](NC(=O)[C@H](C)NC(=O)[C@@H](NC(=O)c1ccccc1N1CCN(C)CC1)C(C)(C)C)C(=O)C(=O)NCc1ccccc1 [PVA-201] | < 0.2 µM
41 | CC(C)[C@H](NC(=O)[C@H](C)NC(=O)[C@@H](NC(=O)c1ccccc1)C(C)(C)C)C(=O)C(=O)NCc1ccc(C(N)=O)cc1 [PVA-202] | < 0.02 µM
42 | CC(C)[C@H](NC(=O)[C@H](C)NC(=O)[C@@H](NC(=O)c1ccccc1)C(C)(C)C)C(=O)C(=O)NC1CCC1 [PVA-203] | < 0.2 µM
43 | COc1ccc(CNC(=O)C(=O)[C@@H](NC(=O)[C@H](C)NC(=O)[C@@H](NC(=O)c2ccccc2)C(C)(C)C)C(C)C)cc1 [PVA-204] | < 0.02 µM
44 | Cc1ccc(CNC(=O)C(=O)[C@@H](NC(=O)[C@H](C)NC(=O)[C@@H](NC(=O)c2ccccc2)C(C)(C)C)C(C)C)cc1 [PVA-205] | < 0.02 µM
45 | CC(C)[C@H](NC(=O)[C@H](C)NC(=O)[C@@H](N1Cc2ccccc2C1=O)C(C)(C)C)C(=O)C(=O)NCc1ccc(S(N)(=O)=O)cc1 [PVA-206] | < 0.02 µM
46 | CC(C)[C@H](NC(=O)[C@H](C)NC(=O)[C@@H](N1Cc2ccccc2C1=O)C(C)(C)C)C(=O)C(=O)NCc1ccc(C(N)=O)cc1 [PVA-207] | < 0.02 µM
47 | CNC(=O)c1ccc(CNC(=O)C(=O)[C@@H](NC(=O)[C@H](C)NC(=O)[C@@H](N2Cc3ccccc3C2=O)C(C)(C)C)C(C)C)cc1 [PVA-209] | < 0.02 µM
48 | CC(C)[C@H](NC(=O)[C@H](C)NC(=O)[C@@H](N1Cc2ccccc2C1=O)C(C)(C)C)C(=O)C(=O)NCc1ccc(CN(C)C)cc1 [PVA-210] | < 0.02 µM
49 | CC(C)[C@H](NC(=O)[C@H](C)NC(=O)[C@@H](N1Cc2ccccc2C1=O)C(C)(C)C)C(=O)C(=O)NCc1ccc(N2CCN(C)CC2)cc1 [PVA-211] | < 0.02 µM
50 | CC(C)[C@H](NC(=O)[C@H](C)NC(=O)[C@@H](N1Cc2ccccc2C1=O)C(C)(C)C)C(=O)C(=O)NCC(=O)N1CCc2ccccc2C1 [PVA-212] | < 0.02 µM
51 | CC(C)[C@H](NC(=O)[C@H](C)NC(=O)[C@@H](N1Cc2ccccc2C1=O)C(C)(C)C)C(=O)C(=O)NCc1ccc(N2CCN(C)CC2)nc1 [PVA-213] | < 0.02 µM
52 | CC(C)[C@H](NC(=O)[C@H](C)NC(=O)[C@@H](NC(=O)c1ccccc1)C12CC3CC(CC(C3)C1)C2)C(=O)C(=O)NCc1ccc(S(N)(=O)=O)cc1 [PVA-214] | < 0.02 µM
53 | CC(C)[C@H](NC(=O)[C@H](C)NC(=O)[C@@H](NC(=O)c1cccc2ccccc12)C(C)(C)C)C(=O)C(=O)NCc1ccc(S(N)(=O)=O)cc1 [PVA-215] | < 0.02 µM
54 | CC(C)[C@H](NC(=O)[C@H](C)NC(=O)[C@@H](NC(=O)C1CCN(C)CC1)C(C)(C)C)C(=O)C(=O)NCc1ccccc1 [PVA-216] | < 0.02 µM
